We go through three compounds from US7465724B2, “Bis-pyrrolo[2,1-c][1,4]benzodiazepine-anthraquinone conjugates and a process for the preparation thereof” (Council of Scientific and Industrial Research, priority 2006, dated 2008).

Assay type in all cases: cell-based, human
What all share (details): 48 h continuous drug exposure; dose to inhibit cell growth by 50% vs untreated cell controls

The test system of one test is Hop62. The test is described as follows: In vitro cytotoxicity, SRB assay, Hop62. The method, then: (§1) Cytotoxicity: Compounds Va-c have been evaluated for the primary anticancer activity in selected human cancer cell lines. For each compound, dose response curves against each cell line were measured at a minimum of five concentrations at 10 fold dilutions. A protocol of 48 h continuous drug exposure was used and a sulforhodamine B (SRB) protein assay was used to estimate cell viability or growth. The concentration causing 50% cell growth inhibition compared with the control has been calculated.
For orientation: In SRB staining, fixed cells bind dye roughly in proportion to their protein.

A further test deals with SiHa. The test is described as follows: In vitro cytotoxicity, SRB assay, SiHa. The method, then:
as §1

In the next test the test system is MCF7. Description: In vitro cytotoxicity, SRB assay, MCF7. The method, then:
as §1

The subject of another test is Colo205. Description: In vitro cytotoxicity, SRB assay, Colo205. As to the method:
as §1

The next test deals with PC3. Description: In vitro cytotoxicity, SRB assay, PC3. The method, then:
as §1

In another test the test system is ZR-75-1. Description: In vitro cytotoxicity, SRB assay, ZR-75-1. The method, then:
as §1

A further test concerns A2780. The test is described as follows: In vitro cytotoxicity, SRB assay, A2780. As to the method: as §1

For the compound `COc1cc2c(cc1OCCCOc1ccc(OCCCOc3cc4c(cc3OC)C(=O)N3CCC[C@H]3C=N4)c3c1C(=O)c1ccccc1C3=O)N=C[C@@H]1CCCN1C2=O` [Va, 1,4-Bis-{3-[7-methoxy-8-oxy-(11aS)-1,2,3,11atetrahydro-5H-pyrrolo [2,1-c][1,4]-benzodiazepin-5-one]propyloxy}anthracene-9,10-dione], the IC50 was below 1000 nM with Hop62; 800 nM with SiHa; 600 nM in the test on MCF7; below 1000 nM in the test with Colo205; 600 nM with PC3; 500 nM in the test on ZR-75-1. Also, half-maximal inhibition in the test with A2780 (IC50) was put at 600 nM.
As to `COc1cc2c(cc1OCCCCCOc1ccc(OCCCCCOc3cc4c(cc3OC)C(=O)N3CCC[C@H]3C=N4)c3c1C(=O)c1ccccc1C3=O)N=C[C@@H]1CCCN1C2=O` [Vc, 1,4-Bis-{5-[7-methoxy-8-oxy-(11aS)-1,2,3,11atetrahydro-5H-pyrrolo [2,1-c][1,4]benzodiazepin-5-one]pentyloxy}anthracene-9,10-dione], the IC50 in the test with Hop62 was 1400 nM; in the test with SiHa, 800 nM; with MCF7, 1200 nM; in the test with Colo205, below 1000 nM; with PC3 it was 1000 nM; in the test on ZR-75-1 it was 1500 nM. For the same compound, the IC50 with A2780 amounted to 600 nM.
`COc1cc2c(cc1OCCCCOc1ccc(OCCCCOc3cc4c(cc3OC)C(=O)N3CCC[C@H]3C=N4)c3c1C(=O)c1ccccc1C3=O)N=C[C@@H]1CCCN1C2=O` [Vb, 1,4-Bis-{4-[7-methoxy-8-oxy-(11aS)-1,2,3,11atetrahydro-5H-pyrrolo [2,1-c][1,4]benzodiazepin-5-one]butyloxy}anthracene-9,10-dione]: the IC50 came to 9000 nM in the test on SiHa; 9000 nM in the test on MCF7; 10000 nM with Colo205; 7000 nM with PC3; 10000 nM in the test on A2780.

The term IC50 denotes the midpoint of a concentration-inhibition curve.
